According to patent US20230002387A1, “2-AMINO-S6-SUBSTITUTED THIOPURINE COMPOUNDS AS INHIBITORS OF THE ENPP1 PROTEIN” (ATEN PORUS LIFESCIENCES PVT. LTD., priority 2019, published 2023):
One block for each compound: values may come before it.

Tests used:
LLC1 syngeneic tumor = experiment: In vivo efficacy in LLC1 syngeneic tumor model (murine Lewis lung carcinoma); design: species or system C57BL/6 mice; conditions: for % TGI (vs Control): Day 15; for Tumor volume (mm^3), Mean, Day 15: SE in next cell; for Reduction of tumor volume compared among the dosing groups of the compound: IV dosing in combination with anti-PD-1 antibody (FIG. 4, 7, 10); for Effect on tumor volume in the murine Lewis lung carcinoma model: PO and IV dosing, alone or in combination with anti-PD-1 antibody (FIG. 4, 7, 10); for Tumor volume (mm^3), Mean ± SE, Day 1: baseline at start of treatment
Method: The anti-tumor efficacy of Compound 155, 173 and 174 was evaluated in combination with an anti-PD-1 antibody (check point inhibitor) in LLC1, a syngeneic tumor model. Compounds were administered orally at a dose of 100 mg/kg, once daily. IV doses of the compound were administered at 10 mg/kg dose, twice weekly or Q3D (Compound 155 at 2 mg/Kg IV). Anti-PD-1 antibody was administered at a dose of 200 μg/animal via IP route on days 1, 5 and 9 (Table 5).
C57BL/6 mice (female, 7-8 weeks of age) were implanted subcutaneously with 0.2×10^6 LLC1 cells (ATCC® CRL-1642^Tm) to evaluate tumor growth in a murine Lewis lung carcinoma model. Tumor-bearing animals were randomized into different treatment groups of 8 animals based on tumor size criteria of about 50-60 mm^3 and dosed according to the schedule in Table 5.
Dosing protocol: The frequency for oral administration was once daily and IV administration was twice weekly for two weeks; anti-PD-1 antibody was administered via IP route on Days 1, 5 and 9.
Tumor measurement: Tumor growth was measured thrice weekly using a digital Vernier caliper. Tumor volume was calculated as: Tumor Volume (TV)=[Length (L)×Width (W)2]/2 (where length is the largest diameter and width is the smallest diameter of the tumor)
Efficacy Evaluation: Tumor growth inhibition (TGI) was calculated as: […]
Data Analysis: Statistical analysis of the data was performed by One-way ANOVA followed by Dunnett's test using GraphPad Prism (version 5.03).

ENPP1 = target: T1, ENPP1 (Homo sapiens, UniProt P22413); experiment: Capillary electrophoresis-based NPP assay with ATP as a substrate (ENPP1 inhibition, Ki); type: biochemical; conditions: bin of Table 2; Ki from IC50 by Cheng-Prusoff, 400 μM ATP
T1 sequence (P22413 1-925): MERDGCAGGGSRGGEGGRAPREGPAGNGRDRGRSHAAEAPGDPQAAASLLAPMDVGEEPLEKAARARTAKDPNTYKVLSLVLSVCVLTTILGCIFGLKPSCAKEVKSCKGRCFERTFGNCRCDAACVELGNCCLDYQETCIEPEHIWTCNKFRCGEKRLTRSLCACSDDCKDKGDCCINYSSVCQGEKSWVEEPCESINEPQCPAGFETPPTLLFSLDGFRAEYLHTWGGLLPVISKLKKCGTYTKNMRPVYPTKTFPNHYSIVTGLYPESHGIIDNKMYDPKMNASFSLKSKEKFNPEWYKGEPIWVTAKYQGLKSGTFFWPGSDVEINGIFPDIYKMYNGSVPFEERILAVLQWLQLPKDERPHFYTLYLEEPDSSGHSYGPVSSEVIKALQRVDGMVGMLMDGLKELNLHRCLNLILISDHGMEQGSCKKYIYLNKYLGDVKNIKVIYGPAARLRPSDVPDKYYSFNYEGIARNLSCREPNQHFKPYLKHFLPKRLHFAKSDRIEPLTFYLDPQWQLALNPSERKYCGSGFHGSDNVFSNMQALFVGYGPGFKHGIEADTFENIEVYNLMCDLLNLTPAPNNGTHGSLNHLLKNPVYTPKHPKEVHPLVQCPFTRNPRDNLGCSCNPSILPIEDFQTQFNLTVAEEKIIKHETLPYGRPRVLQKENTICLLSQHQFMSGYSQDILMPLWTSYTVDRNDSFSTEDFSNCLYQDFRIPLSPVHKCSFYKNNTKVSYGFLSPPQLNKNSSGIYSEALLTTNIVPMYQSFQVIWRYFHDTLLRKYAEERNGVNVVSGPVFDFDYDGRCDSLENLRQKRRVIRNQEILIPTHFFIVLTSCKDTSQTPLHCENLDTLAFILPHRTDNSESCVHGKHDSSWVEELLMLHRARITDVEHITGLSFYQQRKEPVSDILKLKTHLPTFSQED
Method: Here, a Capillary Electrophoresis based method was used to determine the IC50 values for ENPP1 Inhibitors for ENNP1 protein.
The inhibitors synthesized were assessed for ENPP1 inhibitory potency against the natural substrate ATP. The enzyme inhibition assays were performed in 10 mM 2-(N-cyclohexylamino)-ethanesulfonic acid (CHES) buffer (pH 10.0) including 1 mM MgCl2, 2 mM CaCl2), and 400 μM of ATP, with different inhibitor concentrations. The reaction mixture was incubated with 20 ng human NPP1 at 37° C. for 30 min in a final volume of 100 μL, and the reactions were stopped by heating at 90° C. for 3 min. Finally, the reaction mixtures were directly measured by capillary electrophoresis (CE). The CE instrumentation and operating conditions were as follows: P/ACE MDQ capillary electrophoresis system (Beckman Instruments, Fullerton, Calif., USA) with a DAD detection system, polyacrylamide-coated capillaries of 40 cm effective length×[…] (id) obtained from CS Chromatographie GmbH (Langerwehe, Germany), 50 mM phosphate buffer (pH 6.5) as running buffer, electrokinetic injection (−6 kV, 60 s), separation voltage of −15 kV. The amounts of AMP produced were measured at 260 nm. Data collection and peak area analysis were performed by 32 Karat software obtained from Beckman Coulter (Fullerton, Calif., USA).
The IC50 values of test compounds were calculated by plotting data in the program Prism 5.0, and the Ki values were calculated from the IC50 values with the Cheng-Prusoff equation (Tables 2-4).

[1] = IV 2 mg/kg twice weekly + anti-PD-1 200 μg/animal IP Q4D x 3
[2] = PO 100 mg/kg QD x 14 + anti-PD-1 200 μg/animal IP Q4D x 3
[3] = IV 10 mg/kg twice weekly + anti-PD-1 200 μg/animal IP Q4D x 3
[4] = IV 10 mg/kg twice weekly, alone

SMILES: COc1cc(NC(=O)C(C)Sc2nc(N)nc3nc[nH]c23)ccc1O (stereo not shown) [Compound 173]
% TGI (vs Control) (LLC1 syngeneic tumor; [3]): 53%
Tumor volume (mm^3), Mean, Day 15 (LLC1 syngeneic tumor; [3]): 856 mm^3
% TGI (vs Control) (LLC1 syngeneic tumor; [4]): 48%
Tumor volume (mm^3), Mean, Day 15 (LLC1 syngeneic tumor; [4]): 926 mm^3
Reduction of tumor volume compared among the dosing groups of the compound (LLC1 syngeneic tumor): greatest reduction
% TGI (vs Control) (LLC1 syngeneic tumor; [2]): 47%
Tumor volume (mm^3), Mean, Day 15 (LLC1 syngeneic tumor; [2]): 945 mm^3
% TGI (vs Control) (LLC1 syngeneic tumor; PO 100 mg/kg QD x 14, alone): 37%
Tumor volume (mm^3), Mean, Day 15 (LLC1 syngeneic tumor; PO 100 mg/kg QD x 14, alone): 1126 mm^3
Effect on tumor volume in the murine Lewis lung carcinoma model (LLC1 syngeneic tumor): reduced tumor volume
Tumor volume (mm^3), Mean ± SE, Day 1 (LLC1 syngeneic tumor; IV 10 mg/kg + anti-PD-1 group): 50 ± 1.4 mm^3
Tumor volume (mm^3), Mean ± SE, Day 1 (LLC1 syngeneic tumor; IV 10 mg/kg alone group): 50 ± 1.3 mm^3
Tumor volume (mm^3), Mean ± SE, Day 1 (LLC1 syngeneic tumor; PO 100 mg/kg + anti-PD-1 group): 50 ± 1.4 mm^3
Tumor volume (mm^3), Mean ± SE, Day 1 (LLC1 syngeneic tumor; PO 100 mg/kg alone group): 50 ± 1.4 mm^3
Ki (ENPP1): ≤ 100 nM

SMILES: CCC(Sc1nc(N)nc2nc[nH]c12)C(=O)Nc1ccc(O)c(OC)c1 (stereo not shown) [Compound 174]
% TGI (vs Control) (LLC1 syngeneic tumor; [3]): 57%
Tumor volume (mm^3), Mean, Day 15 (LLC1 syngeneic tumor; [3]): 778 mm^3
% TGI (vs Control) (LLC1 syngeneic tumor; [4]): 48%
Tumor volume (mm^3), Mean, Day 15 (LLC1 syngeneic tumor; [4]): 930 mm^3
Reduction of tumor volume compared among the dosing groups of the compound (LLC1 syngeneic tumor): greatest reduction
% TGI (vs Control) (LLC1 syngeneic tumor; [2]): 60%
Tumor volume (mm^3), Mean, Day 15 (LLC1 syngeneic tumor; [2]): 724 mm^3
% TGI (vs Control) (LLC1 syngeneic tumor; PO 100 mg/kg QD x 14, alone): 52%
Tumor volume (mm^3), Mean ± SE, Day 1 (LLC1 syngeneic tumor; IV 10 mg/kg + anti-PD-1 group): 50 ± 1.2 mm^3
Tumor volume (mm^3), Mean ± SE, Day 1 (LLC1 syngeneic tumor; IV 10 mg/kg alone group): 50 ± 1.1 mm^3
Tumor volume (mm^3), Mean ± SE, Day 1 (LLC1 syngeneic tumor; PO 100 mg/kg + anti-PD-1 group): 50 ± 1.2 mm^3
Tumor volume (mm^3), Mean ± SE, Day 1 (LLC1 syngeneic tumor; PO 100 mg/kg alone group): 50 ± 1.3 mm^3

SMILES: COc1nc(NC(=O)[C@H](Cc2ccccc2)Sc2nc(N)nc3nc[nH]c23)ncc1Br [Compound 555]
Ki (ENPP1): ≤ 100 nM

SMILES: CC[C@@H](Sc1nc(N)nc2nc[nH]c12)C(=O)Nc1ncc(Cl)c(OC)n1 [Compound 608]
Ki (ENPP1): ≤ 100 nM

SMILES: CCOc1nc(NC(=O)[C@H](CC)Sc2nc(N)nc3nc[nH]c23)ncc1Br [Compound 678]
Ki (ENPP1): ≤ 100 nM

SMILES: CCOc1nc(NC(=O)[C@@H](Sc2nc(N)nc3nc[nH]c23)C(C)C)ncc1F [Compound 679]
Ki (ENPP1): ≤ 100 nM

SMILES: CCOc1nc(NC(=O)[C@@H](Sc2nc(N)nc3nc[nH]c23)C(C)C)ncc1Br [Compound 681]
Ki (ENPP1): ≤ 100 nM

Continued, in another order:

Ki (ENPP1): ≤ 100 nM
SMILES: Nc1nc(SCC(=O)Nc2ccc(O)c(C(=O)O)c2)c2[nH]cnc2n1 [Compound 155]
% TGI (vs Control) (LLC1 syngeneic tumor; [1]): 57%
Tumor volume (mm^3), Mean, Day 15 (LLC1 syngeneic tumor; [1]): 787 mm^3
% TGI (vs Control) (LLC1 syngeneic tumor; IV 2 mg/kg twice weekly, alone): 47%
Tumor volume (mm^3), Mean, Day 15 (LLC1 syngeneic tumor; IV 2 mg/kg twice weekly, alone): 956 mm^3
Reduction of tumor volume compared among the dosing groups of the compound (LLC1 syngeneic tumor): greatest reduction
% TGI (vs Control) (LLC1 syngeneic tumor; [2]): 44%
Tumor volume (mm^3), Mean, Day 15 (LLC1 syngeneic tumor; [2]): 1008 mm^3
% TGI (vs Control) (LLC1 syngeneic tumor; PO 100 mg/kg QD x 14, alone): 33%
Tumor volume (mm^3), Mean, Day 15 (LLC1 syngeneic tumor; PO 100 mg/kg QD x 14, alone): 1191 mm^3
Effect on tumor volume in the murine Lewis lung carcinoma model (LLC1 syngeneic tumor): reduced tumor volume
Tumor volume (mm^3), Mean ± SE, Day 1 (LLC1 syngeneic tumor; IV 2 mg/kg + anti-PD-1 group): 50 ± 1.4 mm^3
Tumor volume (mm^3), Mean ± SE, Day 1 (LLC1 syngeneic tumor; IV 2 mg/kg alone group): 51 ± 2.0 mm^3
Tumor volume (mm^3), Mean ± SE, Day 1 (LLC1 syngeneic tumor; PO 100 mg/kg + anti-PD-1 group): 50 ± 1.4 mm^3
Tumor volume (mm^3), Mean ± SE, Day 1 (LLC1 syngeneic tumor; PO 100 mg/kg alone group): 50 ± 1.4 mm^3

Ki (ENPP1): ≤ 100 nM
SMILES: COc1nc(NC(=O)C2(Sc3nc(N)nc4nc[nH]c34)CCC2)ncc1Br [Compound 558]

Ki (ENPP1): ≤ 100 nM
SMILES: CC[C@H](Sc1nc(N)nc2nc[nH]c12)C(=O)Nc1ncc(Cl)c(OC)n1 [Compound 609]

Ki (ENPP1): ≤ 100 nM
SMILES: CCOc1nc(NC(=O)[C@H](CC)Sc2nc(N)nc3nc[nH]c23)ncc1F [Compound 673]

Ki (ENPP1): ≤ 100 nM
SMILES: CCOc1nc(NC(=O)[C@H](CC)Sc2nc(N)nc3nc[nH]c23)ncc1Cl [Compound 677]

Ki (ENPP1): ≤ 100 nM
SMILES: CCOc1nc(NC(=O)[C@@H](CC)Sc2nc(N)nc3nc[nH]c23)ncc1Br [Compound 712]
